Molecular target: T1, hGR (recombinant human glucocorticoid receptor) (Homo sapiens, UniProt P04150)
T1 construct: made in house; host or cells: SF9 insect cells, recombinant baculovirus
T1 sequence (P04150 1-777): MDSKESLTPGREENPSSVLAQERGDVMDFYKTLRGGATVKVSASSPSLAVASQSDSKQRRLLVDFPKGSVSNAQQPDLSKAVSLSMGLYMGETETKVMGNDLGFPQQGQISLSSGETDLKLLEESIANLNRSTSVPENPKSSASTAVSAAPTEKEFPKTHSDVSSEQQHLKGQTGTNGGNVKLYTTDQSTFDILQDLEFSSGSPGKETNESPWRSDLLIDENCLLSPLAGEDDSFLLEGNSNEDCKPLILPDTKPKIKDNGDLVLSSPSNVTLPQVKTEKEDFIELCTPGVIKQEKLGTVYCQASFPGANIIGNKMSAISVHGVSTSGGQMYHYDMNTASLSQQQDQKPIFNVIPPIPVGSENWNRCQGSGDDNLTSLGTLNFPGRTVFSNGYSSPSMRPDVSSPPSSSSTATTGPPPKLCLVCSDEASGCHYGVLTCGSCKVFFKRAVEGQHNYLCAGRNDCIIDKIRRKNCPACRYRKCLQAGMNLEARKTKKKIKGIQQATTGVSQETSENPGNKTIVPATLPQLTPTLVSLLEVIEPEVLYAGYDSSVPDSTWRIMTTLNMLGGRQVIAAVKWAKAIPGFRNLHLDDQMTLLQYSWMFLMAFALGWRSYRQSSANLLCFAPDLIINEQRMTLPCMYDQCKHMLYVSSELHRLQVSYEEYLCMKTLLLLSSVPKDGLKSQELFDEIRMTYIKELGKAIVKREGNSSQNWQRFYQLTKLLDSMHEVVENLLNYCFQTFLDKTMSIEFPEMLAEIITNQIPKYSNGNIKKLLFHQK
Test: Relative bond affinity (RBA) on recombinant human glucocorticoid receptor, displacement of tritiated 6,21-dimethyl-Δ1,4,6-pregnatrien-11β,17β-diol-20-yn-3-one
Type: binding
Conditions: for RBA hGR: Dexamethasone = 100, 0° C., 24 hours; for affinity for the glucocorticoid receptor (in words): conclusion in words
Excerpt: 1--Activity on the hormonal receptors using either the natural hormonal receptor of a rat (AR), or the recombinant human receptor (PR, GR and ER).
Human glucocorticoid receptor
A supernatant of SF9 cells containing the recombinant human glucocorticoid receptor was obtained by the process described above for the progesterone receptor using the cDNA fragment described HOLLENBERG et al. (Nature (1985), Vol. 318 No. 19/26, p. 635) containing the region coding for the human glucocorticoid receptor. The cells were lysed in a lysis buffer (2). The supernatant was incubated at 0° C. for 24 hours with a constant concentration (T) of 6,21-dimethyl-Δ1,4,6-pregnatrien-11β,17β-diol-20-yn-3-one tritiated in the presence of increasing concentrations either of unlabelled dexamethasone (0-1000×10^-9 M), or of the unlabelled product under test (1 to 25000×10^-9 M). The concentration of bound tritiated 6,21-dimethyl-Δ1,4,6-pregnatrien-11β,17β-diol-20-yn-3-one (B) was then measured in each incubate by the technique of adsorption with carbon dextran.
Calculation of the relative bond affinity (RBA).
The following 2 curves were traced: percentage of bound tritiated hormone B/BO as a function of the logarithm of the concentration of unlabelled reference hormone or as a function of the logarithm of the concentration of the unlabelled product under test.
The straight line of the following equation was determined:
BO=Concentration of bound tritiated hormone in the absence of any unlabelled product,
B=Concentration of bound tritiated hormone in the presence of a concentration X of unlabelled product,
B min=Concentration of bound tritiated hormone in the presence of a large excess of cold reference hormone (500 nM). The intersections of the straight line I50 and the curves allowed the evaluation of the concentrations of unlabelled reference hormone (CH) and of the unlabelled product under test (CX) which inhibited by 50% the specific binding of the tritiated hormone on the receptor.
The relative bond affinity (RBA) of the product under test was determined by the equation:
The RBA's of the reference products estradiol, progesterone, dexamethasone and testosterone were arbitrarily taken to be equal to 100.

Row | SMILES | RBA hGR | affinity for the glucocorticoid receptor (in words)
1 | CN(CC(F)(F)C(F)(F)C(F)(F)F)S(=O)(=O)CCCCCOc1ccc([C@H]2C[C@]3(C)[C@@H](O)CC[C@H]3[C@@H]3CCc4cc(O)ccc4[C@H]32)cc1 [Example 8, 5-[4-(Δ1,3,5(10)-estratrien-3,17β-diol-11βyl)-Phenoxy]-N-(2,2,3,3,4,4,4-heptafluorobutyl)-N-methyl-pentanesulfonamide] | 114 | marked affinity
2 | CCCCNS(=O)(=O)CCCCCOc1ccc([C@H]2C[C@]3(C)[C@@H](O)CC[C@H]3[C@@H]3CCc4cc(O)ccc4[C@H]32)cc1 [Example 2, N-butyl-5-[4-(Δ1,3,5(10)-estratrien-3,17β-diol-11β-yl)phenoxy]-pentanesulfonamide] | 82 | marked affinity
3 | CCCCN(C)S(=O)(=O)CCCCCOc1ccc([C@H]2C[C@]3(C)[C@@H](O)CC[C@H]3[C@@H]3CCc4cc(O)ccc4[C@H]32)cc1 [Example 7, N-butyl-5-[4-(Δ1,3,5(10)-estratrien-3,17β-diol-11β-yl)phenoxy]-N-methyl-pentanesulfonamide] | 152 | marked affinity

— patent US5494907A, “11-β substituted-19-nor steroids” (Roussel UCLAF, priority 1993, dated 1996)
